What was measured:
Assay type in all cases: in vivo
Settings in all cases: treatment dosage 320 g/ha
[1] = system: black-grass; assay: Test Example 3: weedkilling efficacy through soil treatment; H: black-grass
In short: (§1)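 Crop and weed responses were judged three weeks after a uniform surface spray of the water-diluted emulsion at the given g/ha rate. Seeds sat beneath about 1.5 cm of sterilized diluvial soil, and boxes stood in a greenhouse at 25 to 30° C.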

[2] = system: fig-leafed goosefoot; assay: Test Example 4: weedkilling efficacy by foliar treatment; M: fig-leafed goosefoot
In short: (§2)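 Seeds are spot-sown into sterilized diluvial soil and covered with about 1.5 cm of soil. After 14 days' greenhouse growth at 25 to 30° C, plants are sprayed on stems and leaves with diluted emulsion at the stated g/ha rate, then scored at 3 weeks.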

[3] = system: fig-leafed goosefoot; assay: Test Example 3: weedkilling efficacy through soil treatment; M: fig-leafed goosefoot
In short: as §1

[4] = system: beet; assay: Test Example 3: soil treatment, effect on crop; f: beet
In short: as §1

[5] = system: redroot pigweed; assay: Test Example 4: weedkilling efficacy by foliar treatment; L: redroot pigweed
In short: as §2

[6] = system: wild oat; assay: Test Example 4: weedkilling efficacy by foliar treatment; G: wild oat
In short: as §2

[7] = system: common wind-grass; assay: Test Example 3: weedkilling efficacy through soil treatment; J: common wind-grass
In short: as §1

[8] = system: barnyard grass; assay: Test Example 2: weedkilling efficacy, growth period weed treatment in the submerged state; A: barnyard grass
In short: (§3)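 Seedlings at 1-2 leaves in 4 cm-deep submerged alluvial soil received emulsion formulations on the water surface, dosed per hectare; effects were judged 3 weeks on.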

[9] = system: birds-eye speedwell; assay: Test Example 4: weedkilling efficacy by foliar treatment; p: birds-eye speedwell
In short: as §2

[10] = system: crabgrass; assay: Test Example 3: weedkilling efficacy through soil treatment; D: crabgrass
In short: as §1

[11] = system: soybean; assay: Test Example 3: soil treatment, effect on crop; d: soybean
In short: as §1

[12] = system: Italian ryegrass; assay: Test Example 3: weedkilling efficacy through soil treatment; I: Italian ryegrass
In short: as §1

[13] = system: oval-leafed pondweed; assay: Test Example 2: weedkilling efficacy, growth period weed treatment in the submerged state; C: oval-leafed pondweed
In short: as §3

[14] = system: soybean; assay: Test Example 4: foliar treatment, effect on crop; d: soybean
In short: as §2

[15] = system: barnyard grass; assay: Test Example 3: weedkilling efficacy through soil treatment; F: barnyard grass
In short: as §1

[16] = system: birds-eye speedwell; assay: Test Example 3: weedkilling efficacy through soil treatment; p: birds-eye speedwell
In short: as §1

[17] = system: crabgrass; assay: Test Example 4: weedkilling efficacy by foliar treatment; D: crabgrass
In short: as §2

[18] = system: common wind-grass; assay: Test Example 4: weedkilling efficacy by foliar treatment; J: common wind-grass
In short: as §2

[19] = system: corn; assay: Test Example 3: soil treatment, effect on crop; c: corn
In short: as §1

[20] = system: corn; assay: Test Example 4: foliar treatment, effect on crop; c: corn
In short: as §2

[21] = system: rapeseed; assay: Test Example 3: soil treatment, effect on crop; g: rapeseed
In short: as §1

[22] = system: barnyard grass; assay: Test Example 1: weedkilling efficacy, preemergent weed treatment in the submerged state; A: barnyard grass
In short: (§4)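 Pre-emergence paddy test: weed seeds sown in submerged alluvial soil (4 cm water), 2.5-leaf rice transplanted, water-diluted emulsion applied to water surface at sowing at stated g/ha. Scored at 3 weeks, greenhouse 25–30 °C.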

[23] = system: redroot pigweed; assay: Test Example 3: weedkilling efficacy through soil treatment; L: redroot pigweed
In short: as §1

[24] = system: bulrush; assay: Test Example 2: weedkilling efficacy, growth period weed treatment in the submerged state; B: bulrush
In short: as §3

[25] = system: wild oat; assay: Test Example 3: weedkilling efficacy through soil treatment; G: wild oat
In short: as §1

[26] = system: beet; assay: Test Example 4: foliar treatment, effect on crop; f: beet
In short: as §2

[27] = system: black-grass; assay: Test Example 4: weedkilling efficacy by foliar treatment; H: black-grass
In short: as §2

[28] = system: catchweed; assay: Test Example 3: weedkilling efficacy through soil treatment; O: catchweed
In short: as §1

[29] = system: oval-leafed pondweed; assay: Test Example 1: weedkilling efficacy, preemergent weed treatment in the submerged state; C: oval-leafed pondweed
In short: as §4

[30] = system: rapeseed; assay: Test Example 4: foliar treatment, effect on crop; g: rapeseed
In short: as §2

[31] = system: green foxtail; assay: Test Example 4: weedkilling efficacy by foliar treatment; E: green foxtail
In short: as §2

[32] = system: directly sown rice; assay: Test Example 3: soil treatment, effect on crop; b: directly sown rice
In short: as §1

[33] = system: wheat; assay: Test Example 4: foliar treatment, effect on crop; e: wheat
In short: as §2

[34] = system: directly sown rice; assay: Test Example 4: foliar treatment, effect on crop; b: directly sown rice
In short: as §2

[35] = system: chickweed; assay: Test Example 4: weedkilling efficacy by foliar treatment; N: chickweed
In short: as §2

[36] = system: wheat; assay: Test Example 3: soil treatment, effect on crop; e: wheat
In short: as §1

[37] = system: Indian mallow; assay: Test Example 4: weedkilling efficacy by foliar treatment; K: Indian mallow
In short: as §2

[38] = system: green foxtail; assay: Test Example 3: weedkilling efficacy through soil treatment; E: green foxtail
In short: as §1

[39] = system: transplanted rice; assay: Test Example 1: preemergent weed treatment in the submerged state, effect on crop; a: transplanted rice
In short: as §4

[40] = system: chickweed; assay: Test Example 3: weedkilling efficacy through soil treatment; N: chickweed
In short: as §1

[41] = system: Indian mallow; assay: Test Example 3: weedkilling efficacy through soil treatment; K: Indian mallow
In short: as §1

[42] = system: bulrush; assay: Test Example 1: weedkilling efficacy, preemergent weed treatment in the submerged state; B: bulrush
In short: as §4

[43] = system: Italian ryegrass; assay: Test Example 4: weedkilling efficacy by foliar treatment; I: Italian ryegrass
In short: as §2

[44] = system: barnyard grass; assay: Test Example 4: weedkilling efficacy by foliar treatment; F: barnyard grass
In short: as §2

[45] = system: catchweed; assay: Test Example 4: weedkilling efficacy by foliar treatment; O: catchweed
In short: as §2

Structure (SMILES): CC1=C(c2ccccc2)C(=O)N(C(C)(C)C(=O)Nc2cc(C)cc(F)n2)CO1 [B-2-38]
- H (black-grass) weedkilling efficacy grade [1]: 5 (weed kill ratio 90% or more, (practically complete withering))
- M (fig-leafed goosefoot) weedkilling efficacy grade [2]: 4 (weed kill ratio 70% or more, less than 90%)
- M (fig-leafed goosefoot) weedkilling efficacy grade [3]: 4 (weed kill ratio 70% or more, less than 90%)
- f (beet) effect on crop grade [4]: 4 (weed kill ratio 70% or more, less than 90%)
- L (redroot pigweed) weedkilling efficacy grade [5]: 4 (weed kill ratio 70% or more, less than 90%)
- G (wild oat) weedkilling efficacy grade [6]: 5 (weed kill ratio 90% or more, (practically complete withering))
- J (common wind-grass) weedkilling efficacy grade [7]: 5 (weed kill ratio 90% or more, (practically complete withering))
- A (barnyard grass) weedkilling efficacy grade [8]: 5 (weed kill ratio 90% or more, (practically complete withering))
- P (birds-eye speedwell) weedkilling efficacy grade [9]: 4 (weed kill ratio 70% or more, less than 90%)
- D (crabgrass) weedkilling efficacy grade [10]: 5 (weed kill ratio 90% or more, (practically complete withering))
- d (soybean) effect on crop grade [11]: 4 (weed kill ratio 70% or more, less than 90%)
- I (Italian ryegrass) weedkilling efficacy grade [12]: 5 (weed kill ratio 90% or more, (practically complete withering))
- C (oval-leafed pondweed) weedkilling efficacy grade [13]: 5 (weed kill ratio 90% or more, (practically complete withering))
- d (soybean) effect on crop grade [14]: 4 (weed kill ratio 70% or more, less than 90%)
- F (barnyard grass) weedkilling efficacy grade [15]: 5 (weed kill ratio 90% or more, (practically complete withering))
- P (birds-eye speedwell) weedkilling efficacy grade [16]: 5 (weed kill ratio 90% or more, (practically complete withering))
- D (crabgrass) weedkilling efficacy grade [17]: 5 (weed kill ratio 90% or more, (practically complete withering))
- J (common wind-grass) weedkilling efficacy grade [18]: 5 (weed kill ratio 90% or more, (practically complete withering))
- c (corn) effect on crop grade [19]: 1 (weed kill ratio 5% or more, less than 20%)
- c (corn) effect on crop grade [20]: 5 (weed kill ratio 90% or more, (practically complete withering))
- g (rapeseed) effect on crop grade [21]: 4 (weed kill ratio 70% or more, less than 90%)
- A (barnyard grass) weedkilling efficacy grade [22]: 5 (weed kill ratio 90% or more, (practically complete withering))
- L (redroot pigweed) weedkilling efficacy grade [23]: 3 (weed kill ratio 40% or more, less than 70%)
- B (bulrush) weedkilling efficacy grade [24]: 5 (weed kill ratio 90% or more, (practically complete withering))
- G (wild oat) weedkilling efficacy grade [25]: 5 (weed kill ratio 90% or more, (practically complete withering))
- f (beet) effect on crop grade [26]: 4 (weed kill ratio 70% or more, less than 90%)
- H (black-grass) weedkilling efficacy grade [27]: 5 (weed kill ratio 90% or more, (practically complete withering))
- O (catchweed) weedkilling efficacy grade [28]: 5 (weed kill ratio 90% or more, (practically complete withering))
- C (oval-leafed pondweed) weedkilling efficacy grade [29]: 5 (weed kill ratio 90% or more, (practically complete withering))
- g (rapeseed) effect on crop grade [30]: 4 (weed kill ratio 70% or more, less than 90%)
- E (green foxtail) weedkilling efficacy grade [31]: 5 (weed kill ratio 90% or more, (practically complete withering))
- b (directly sown rice) effect on crop grade [32]: 5 (weed kill ratio 90% or more, (practically complete withering))
- e (wheat) effect on crop grade [33]: 1 (weed kill ratio 5% or more, less than 20%)
- b (directly sown rice) effect on crop grade [34]: 5 (weed kill ratio 90% or more, (practically complete withering))
- N (chickweed) weedkilling efficacy grade [35]: 4 (weed kill ratio 70% or more, less than 90%)
- e (wheat) effect on crop grade [36]: 0 (weed kill ratio 5% or less (practically no effect))
- K (Indian mallow) weedkilling efficacy grade [37]: 4 (weed kill ratio 70% or more, less than 90%)
- E (green foxtail) weedkilling efficacy grade [38]: 5 (weed kill ratio 90% or more, (practically complete withering))
- a (transplanted rice) effect on crop grade [39]: 3 (weed kill ratio 40% or more, less than 70%)
- N (chickweed) weedkilling efficacy grade [40]: 4 (weed kill ratio 70% or more, less than 90%)
- K (Indian mallow) weedkilling efficacy grade [41]: 1 (weed kill ratio 5% or more, less than 20%)
- B (bulrush) weedkilling efficacy grade [42]: 5 (weed kill ratio 90% or more, (practically complete withering))
- I (Italian ryegrass) weedkilling efficacy grade [43]: 5 (weed kill ratio 90% or more, (practically complete withering))
- F (barnyard grass) weedkilling efficacy grade [44]: 5 (weed kill ratio 90% or more, (practically complete withering))
- O (catchweed) weedkilling efficacy grade [45]: 4 (weed kill ratio 70% or more, less than 90%)

— patent US9738634B2, “Heterocyclic amide compound and herbicide” (SYNGENTA PARTICIPATIONS AG, priority 2013, dated 2017)
